SMILES strings stand for the structures. A value given as a limit tells only on which side of the number the result lay.

For experiment [1], the target named is T1, NLRP3 (Homo sapiens, UniProt Q96P20). Briefly: THP-1 cells pyroptosis assay. The format is cell-based. Also noted: Seed THP-1 cells (25,000 cells/well) containing 1.0 μg/ml LPS; host or cells: THP-1. The settings on record: LPS 1.0 μg/ml, nigericin 5 μM, resazurin readout, 10 μM top dose (Example 2: top dose of 30 μM). In a few lines: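 Pyroptosis induced by 5 μM nigericin (1 h) in LPS-primed (1 μg/ml) THP-1 cells, 25,000/well in serum-free RPMI, after 3 h compound pre-treatment (8 points, 10 μM top unless stated). Surviving cells measured with 100 μM resazurin, Ex 560/Em 590; IC50 via variable-slope 4-parameter regression.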

The target of experiment [2] is T1, NLRP3. In words: Human whole blood IL1β release assay. The format is cell-based. Particulars: LPS 1 μg/ml, nigericin 10 μM, IL-1β AlphaLisa, 10 μM top dose (Example 2: top dose of 30 μM), read-out: HWB IC50. In a few lines:
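Healthy-donor heparinised human whole blood with 1 μg/ml LPS, compound (8-point half-log dilution, 10 μM top dose unless stated; 0.1% DMSO vehicle) for 3 h at 37 °C, then nigericin 10 μM final for 1 h. Supernatant IL-1β by AlphaLISA; IC50 from 4-parameter variable-slope fit.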

T1 sequence (Q96P20 whole entry): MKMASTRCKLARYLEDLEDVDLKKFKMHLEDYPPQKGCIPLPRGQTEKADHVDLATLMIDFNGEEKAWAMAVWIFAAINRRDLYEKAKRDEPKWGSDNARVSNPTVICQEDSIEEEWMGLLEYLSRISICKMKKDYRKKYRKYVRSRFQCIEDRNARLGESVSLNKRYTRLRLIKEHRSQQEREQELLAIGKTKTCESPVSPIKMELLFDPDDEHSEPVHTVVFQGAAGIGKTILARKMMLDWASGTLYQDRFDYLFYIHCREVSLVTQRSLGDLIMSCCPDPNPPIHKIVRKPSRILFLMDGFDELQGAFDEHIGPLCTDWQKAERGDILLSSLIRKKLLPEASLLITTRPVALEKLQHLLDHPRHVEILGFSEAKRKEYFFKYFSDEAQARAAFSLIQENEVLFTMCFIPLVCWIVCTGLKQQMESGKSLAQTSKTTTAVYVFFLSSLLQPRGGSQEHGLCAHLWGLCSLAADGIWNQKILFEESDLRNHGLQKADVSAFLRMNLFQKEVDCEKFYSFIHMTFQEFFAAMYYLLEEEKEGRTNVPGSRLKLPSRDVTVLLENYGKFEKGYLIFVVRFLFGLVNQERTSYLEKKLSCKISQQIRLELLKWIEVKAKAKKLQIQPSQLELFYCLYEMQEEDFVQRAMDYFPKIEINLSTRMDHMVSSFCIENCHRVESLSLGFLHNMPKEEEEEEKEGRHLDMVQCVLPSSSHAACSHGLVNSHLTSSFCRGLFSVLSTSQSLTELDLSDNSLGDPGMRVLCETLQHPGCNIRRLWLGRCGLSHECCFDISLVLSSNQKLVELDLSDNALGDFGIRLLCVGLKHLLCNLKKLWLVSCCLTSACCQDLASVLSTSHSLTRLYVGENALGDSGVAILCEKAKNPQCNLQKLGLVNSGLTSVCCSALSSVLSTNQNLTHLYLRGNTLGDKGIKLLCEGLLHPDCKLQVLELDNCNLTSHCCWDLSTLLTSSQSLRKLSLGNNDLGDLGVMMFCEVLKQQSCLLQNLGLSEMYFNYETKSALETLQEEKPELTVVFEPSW

Broadly, the IC50 is the midpoint of a concentration-inhibition curve. Take `CC(C)n1ccc(S(=O)(=O)c2nnc(Nc3c(-c4ccncc4)cc(F)c4c3CCC4)[nH]2)n1` [Example 36, N-(7-fluoro-5-(pyridin-4-yl)-2,3-dihydro-1H-inden-4-yl)-5-((1-isopropyl-1H-pyrazol-3-yl)sulfonyl)-4H-1,2,4-triazol-3-amine]: the IC50 in experiment [1] is at most 5000 nM; in experiment [2] it was at most 10000 nM.
Consider `CN1CCC(N(C)S(=O)(=O)c2nnc(Nc3c4c(cc5c3CCC5)CCC4)[nH]2)C1` (centres unmarked) [Example 87, 5-((1,2,3,5,6,7-hexahydro-s-indacen-4-yl)amino)-N-methyl-N-(1-methylpyrrolidin-3-yl)-4H-1,2,4-triazole-3-sulfonamide], for which the figures for the IC50 in experiment [1] and in experiment [2] were at most 5000 nM and at most 1000 nM, respectively.
In the case of `O=S(=O)(c1nnc(Nc2c3c(cc4c2CCC4)CCC3)[nH]1)N1CCC(N2CCCC2)CC1` [Example 124, N-(1,2,3,5,6,7-hexahydro-s-indacen-4-yl)-5-((4-(pyrrolidin-1-yl)piperidin-1-yl)sulfonyl)-4H-1,2,4-triazol-3-amine], the IC50 is at most 1000 nM in experiment [1] and at most 5000 nM in experiment [2].
As to `CCN(CC)CCCNS(=O)(=O)c1nnc(Nc2c3c(cc4c2CCC4)CCC3)[nH]1` [Example 109, N-(3-(diethylamino)propyl)-5-((1,2,3,5,6,7-hexahydro-s-indacen-4-yl)amino)-4H-1,2,4-triazole-3-sulfonamide], the IC50 is at most 500 nM in experiment [1] and at most 1000 nM in experiment [2].
On the same counts, the results for `CC(C)(O)[C@@H]1CCN(S(=O)(=O)c2nnc(Nc3c4c(cc5c3CCC5)CCC4)[nH]2)C1` [Example 330, (R)-2-(1-((5-((1,2,3,5,6,7-hexahydro-s-indacen-4-yl)amino)-4H-1,2,4-triazol-3-yl)sulfonyl)pyrrolidin-3-yl)propan-2-ol] are at most 1000 nM and at most 10000 nM.
Turning to `CCN(CC)CCCS(=O)(=O)c1nnc(Nc2c(-c3ccncc3)cc(F)c3c2CCC3)[nH]1` [Example 77, 5-((3-(diethylamino)propyl)sulfonyl)-N-(7-fluoro-5-(pyridin-4-yl)-2,3-dihydro-1H-inden-4-yl)-4H-1,2,4-triazol-3-amine], the figures for the IC50 in experiment [1] and in experiment [2] were at most 1000 nM and at most 5000 nM, respectively.
As to `CN(C)C1CCN(S(=O)(=O)c2nnc(Nc3c(-c4ccnc(OC(F)F)c4)ccc4c3CCO4)[nH]2)CC1` [Example 225, 1-((5-((5-(2-(difluoromethoxy)pyridin-4-yl)-2,3-dihydrobenzofuran-4-yl)amino)-4H-1,2,4-triazol-3-yl)sulfonyl)-N,N-dimethylpiperidin-4-amine], the IC50 in experiment [1] was at most 500 nM; in experiment [2] it was at most 1000 nM.
As to `CC(CNS(=O)(=O)c1nnc(Nc2c3c(cc4c2CCC4)CCC3)[nH]1)N(C)C` (centres unmarked) [Example 290, N-(2-(dimethylamino)propyl)-5-((1,2,3,5,6,7-hexahydro-s-indacen-4-yl)amino)-4H-1,2,4-triazole-3-sulfonamide], the IC50 in experiment [1] and in experiment [2] was at most 5000 nM throughout.
Consider `CN(C)C1CCN(S(=O)(=O)c2nnc(Nc3c(-c4ccncc4)ccc4c3CCO4)[nH]2)CC1` [Example 220, N,N-dimethyl-1-((5-((5-(pyridin-4-yl)-2,3-dihydrobenzofuran-4-yl)amino)-4H-1,2,4-triazol-3-yl)sulfonyl)piperidin-4-amine], for which the results for the IC50 in experiment [1] and in experiment [2] were at most 1000 nM and at most 5000 nM, respectively.
Take `COC(C)(C)[C@H]1CCN(S(=O)(=O)c2nnc(Nc3c4c(cc5c3CCC5)CCC4)[nH]2)C1` [Example 347, (S)-N-(1,2,3,5,6,7-hexahydro-s-indacen-4-yl)-5-((3-(2-methoxypropan-2-yl)pyrrolidin-1-yl)sulfonyl)-4H-1,2,4-triazol-3-amine]: the IC50 in experiment [1] was at most 1000 nM; in experiment [2] it was at most 10000 nM.
Taken in the same sequence, the figures for `COc1cc(-c2ccc3c(c2Nc2nnc(S(=O)(=O)N4CCC5(CCN5C)CC4)[nH]2)CCO3)ccn1` [Example 203, N-(5-(2-methoxypyridin-4-yl)-2,3-dihydrobenzofuran-4-yl)-5-((1-methyl-1,7-diazaspiro[3.5]nonan-7-yl)sulfonyl)-4H-1,2,4-triazol-3-amine] were at most 500 nM and at most 5000 nM.
For the compound `CN1CC2(C1)CN(S(=O)(=O)c1nnc(Nc3c4c(cc5c3CCC5)CCC4)[nH]1)C2` [Example 137, N-(1,2,3,5,6,7-hexahydro-s-indacen-4-yl)-5-((6-methyl-2,6-diazaspiro[3.3]heptan-2-yl)sulfonyl)-4H-1,2,4-triazol-3-amine], the IC50 in experiment [1] and in experiment [2] was at most 500 nM in each case.
Take `CN(C)C1CCN(S(=O)(=O)c2nnc(Nc3c4c(cc5c3CCC5)CCC4)[nH]2)C1` (centres unmarked) [Example 93, 5-((3-(dimethylamino)pyrrolidin-1-yl)sulfonyl)-N-(1,2,3,5,6,7-hexahydro-s-indacen-4-yl)-4H-1,2,4-triazol-3-amine]: the IC50 in experiment [1] and in experiment [2] was at most 5000 nM in each case.
`CN(C)CC1CCN(S(=O)(=O)c2nnc(Nc3c4c(cc5c3CCC5)CCC4)[nH]2)CC1` [Example 304, 5-((4-((dimethylamino)methyl)piperidin-1-yl)sulfonyl)-N-(1,2,3,5,6,7-hexahydro-s-indacen-4-yl)-4H-1,2,4-triazol-3-amine]: the IC50 in experiment [1] is at most 500 nM; in experiment [2] it was at most 1000 nM.
`CC(C)c1cc(F)cc(C(C)C)c1Nc1nc(S(=O)(=O)N2CCC(CN(C)C)C2)n[nH]1` (centres unmarked) [Example 241, 3-((3-((dimethylamino)methyl)pyrrolidin-1-yl)sulfonyl)-N-(4-fluoro-2,6-diisopropylphenyl)-1H-1,2,4-triazol-5-amine]: the values for the IC50 in experiment [1] and in experiment [2] were at most 500 nM and at most 1000 nM, respectively.
As to `CN(C)C1CCN(S(=O)(=O)c2nnc(Nc3c(-c4ccncc4)ccc4c3CCC4)[nH]2)CC1` [Example 219, N,N-dimethyl-1-((5-((5-(pyridin-4-yl)-2,3-dihydro-1H-inden-4-yl)amino)-4H-1,2,4-triazol-3-yl)sulfonyl)piperidin-4-amine], the IC50 is at most 500 nM in experiment [1] and at most 1000 nM in experiment [2].
As for `COc1cc(-c2ccc3c(c2Nc2nnc(S(=O)(=O)N4CCC5(CCCN5C)CC4)[nH]2)CCO3)ccn1` [Example 211, N-(5-(2-methoxypyridin-4-yl)-2,3-dihydrobenzofuran-4-yl)-5-((1-methyl-1,8-diazaspiro[4.5]decan-8-yl)sulfonyl)-4H-1,2,4-triazol-3-amine], the IC50 in experiment [1] is at most 500 nM; in experiment [2] it was at most 5000 nM.
For `CC(C)N(CCNS(=O)(=O)c1nnc(Nc2c3c(cc4c2CCC4)CCC3)[nH]1)C(C)C` [Example 110, N-(2-(diisopropylamino)ethyl)-5-((1,2,3,5,6,7-hexahydro-s-indacen-4-yl)amino)-4H-1,2,4-triazole-3-sulfonamide], the IC50 is at most 500 nM in experiment [1] and at most 10000 nM in experiment [2].
Turning to `O=S(=O)(c1nnc(Nc2c3c(cc4c2CCC4)CCC3)[nH]1)N1CC(N2CCCCC2)C1` [Example 133, N-(1,2,3,5,6,7-hexahydro-s-indacen-4-yl)-5-((3-(piperidin-1-yl)azetidin-1-yl)sulfonyl)-4H-1,2,4-triazol-3-amine], the IC50 in experiment [1] is at most 500 nM; in experiment [2], at most 10000 nM.
Take `CC(C)(O)[C@H]1CCN(S(=O)(=O)c2nnc(Nc3c4c(cc5c3CCC5)CCC4)[nH]2)C1` [Example 233, (S)-2-(1-((5-((1,2,3,5,6,7-hexahydro-s-indacen-4-yl)amino)-4H-1,2,4-triazol-3-yl)sulfonyl)pyrrolidin-3-yl)propan-2-ol]: the IC50 was at most 500 nM in experiment [1] and at most 5000 nM in experiment [2].
For `CN1CCCC(CNS(=O)(=O)c2nnc(Nc3c4c(cc5c3CCC5)CCC4)[nH]2)C1` (centres unmarked) [Example 128, 5-((1,2,3,5,6,7-hexahydro-s-indacen-4-yl)amino)-N-((1-methylpiperidin-3-yl)methyl)-4H-1,2,4-triazole-3-sulfonamide], the IC50 in experiment [1] is at most 1000 nM; in experiment [2], at most 10000 nM.
Turning to `CCN1CCC12CCN(S(=O)(=O)c1nnc(Nc3c4c(cc5c3CCC5)CCC4)[nH]1)CC2` [Example 257, 5-((1-ethyl-1,7-diazaspiro[35]nonan-7-yl)sulfonyl)-N-(1,2,3,5,6,7-hexahydro-s-indacen-4-yl)-4H-1,2,4-triazol-3-amine], the IC50 in experiment [1] and in experiment [2] was at most 500 nM throughout.
As to `CN(C)CC1CCCN(S(=O)(=O)c2nnc(Nc3c4c(cc5c3CCC5)CCC4)[nH]2)C1` (centres unmarked) [Example 305, 5-((3-((dimethylamino)methyl)piperidin-1-yl)sulfonyl)-N-(1,2,3,5,6,7-hexahydro-s-indacen-4-yl)-4H-1,2,4-triazol-3-amine], the IC50 in experiment [1] and in experiment [2] was at most 5000 nM each time.
Turning to `COc1cc(-c2ccc3c(c2Nc2nnc(S(=O)(=O)N4CCC(N(C)C)CC4)[nH]2)CCC3)ccn1` [Example 228, 1-((5-((5-(2-methoxypyridin-4-yl)-2,3-dihydro-1H-inden-4-yl)amino)-4H-1,2,4-triazol-3-yl)sulfonyl)-N,N-dimethylpiperidin-4-amine], the figures for the IC50 in experiment [1] and in experiment [2] were at most 500 nM and at most 1000 nM, respectively.
With `[2H]C([2H])([2H])Oc1cc(-c2ccc3c(c2Nc2nnc(S(=O)(=O)N4CCC(N(C)C)CC4)[nH]2)CCO3)ccn1` [Example 218, 1-((5-((5-(2-(methoxy-d)pyridin-4-yl)-2,3-dihydrobenzofuran-4-yl)amino)-4H-1,2,4-triazol-3-yl)sulfonyl)-N,N-dimethylpiperidin-4-amine], the IC50 in experiment [1] and in experiment [2] was at most 500 nM in each case.

The record behind these values is patent publication US20210261512A1, “NOVEL COMPOUNDS” (INFLAZOME LIMITED, priority 2018, published 2021).
